Assay [1] relates to mouse. Put plainly: Marble burying test in the mouse. The assay is classed as in vivo. Conditions: for Number of marbles covered by sawdust, mean ± s.e.m.: vehicle 20.1 ± 1.7. The source says:
The method applied here follows that described by Broekkamp et al. (European Journal of Pharmacology 1986, 126, 223-229.). Mice (n=15 per treatment group) were individually placed in transparent plastic cages (33×21×18 cm) with 5 cm of sawdust on the floor and 25 marbles (diameter 1 cm) grouped in the centre of the cage. A second, up-turned, cage served as a lid. The number of marbles covered by sawdust (by at least two-thirds) was counted at the end of the 30-minute test period. Tests were performed by investigators blind to the drug treatment protocol.
Prior to testing, all test cages and marbles were “impregnated” by leaving 10 naive mice in each cage for 15 minutes.
(−)-Humulone was solubilized in physiological saline. The control substance fluoxetine (Prozac®) (Lilly), batches n^o A069667 and A058238) was dispersed in 0.2% hydroxypropylmethylcellulose (HPMC) in physiological saline.
(−)-Humulone was evaluated at 3, 10 and 30 mg/kg, administered i.p. 30 minutes before the test, and compared with a vehicle control group. Fluoxetine (32 mg/kg), administered under the same experimental conditions, was used as a reference substance.
Data were analysed by comparing treated groups with vehicle control using unpaired Student's t-tests.

Assay [2] addresses T1, human serotonin re-uptake transporter (hSERT) (Homo sapiens, UniProt P31645).
T1 construct: host or cells: HEK-293
Put plainly: Serotonin uptake inhibition in HEK-293 cells expressing hSERT. Type of assay: cell-based. Conditions: for Effect on serotonin re-uptake (hSERT dependent uptake of tritiated serotonin into transfected cells): result in words; for pKi: transfected HEK-293 cells, Ki from measured IC50 by Cheng-Prusoff, average +/− s.e.m. of two experiments, read-out: Inhibition constant Ki for tritiated serotonin uptake. The source says: HEK-293 cells stably expressing the human serotonin re-uptake transporter (hSERT) were obtained from R. Blakely, Vanderbilt University, USA. The cells were routinely grown in Dulbeco's Modified Eagles Medium (Bioconcept) containing 10% fetal calf serum, penicillin, streptomycin, L-glutamine and the antibiotic G418 and passaged by trypsinisation. On the day of assay, cells from 80% confluent flasks were harvested by gentle washing with warm phosphate buffered saline (PBS). Cells were then washed once by centrifugation and re-suspended in Krebs Ringers bicarbonate buffer (Sigma) supplemented with 35 μM pargyline, 2.2 mM CaCl2, 1 mM ascorbic acid and 5 mM N-2-hydroxyethylpiperazine-N′-2-ethanesulfonic acid (buffer called “Hepes”) at a concentration of 10,000 cells in 160 ul of buffer, and aliquoted into round bottomed polypropylene 96 well microtitre plates (Corning) at 10,000 cells per well. Serotonin uptake into the cells was determined by addition of radio-labeled (3H) serotonin (GE Healthcare) to a concentration of 20 nM, and incubation for 40 minutes at 37° C. with gentle shaking. At the end of this time unincorporated label was removed by filtration though Unifilter 96 GF/B plates (Perkin Elmer) using a Tomtec Mach III M cell harvester. The incorporated serotonin retained on the plates was quantified by liquid scintillation counting using Microscint-40/Topcount (Perkin Elmer).
The effect of (−)-humulone and lupulone on the serotonin uptake was determined by their inclusion in the assay at a range of concentrations between 0.03 and 100 μM for 10 minutes prior to and during the addition of (3H) serotonin. Serotonin uptake via the transporter was inhibited by (−)-humulone and lupulone, respectively, in a dose dependent manner.
The calculated inhibition constants Ki, derived from the measured IC50 using the Cheng-Prusoff equation (Y. C. Cheng, W. H. Prusoff, Biochem. Pharmacol. 1973, 22, p. 3099-3108), for inhibition of serotonin uptake by (−)-humulone and lupulone are shown in Table 1.

The test system of assay [3] is mouse. Put plainly: Primary observation (Irwin) test in the mouse. The assay is classed as in vivo. Conditions: 30 mg/kg i.p., 5 mice per group. From the text:
The method, which detects the first toxic dose, the active dose-range and the principal effects of a test substance on behaviour and physiological function, follows that described by Irwin (Irwin S. Comprehensive observational assessment: A systematic quantitative procedure for assessing the behavioural and physiologic state of the mouse. Psychopharmacologia, 1968, 13, 222-257).
3 treated groups were compared with the same control at any one time. All animals within a treatment group were observed simultaneously.
Behavioural modifications, physiological and neurotoxicity symptoms, pupil diameter and rectal temperature were recorded according to a standardized observation grid derived from that of Irwin. The grid contains the following items: lethality*, convulsions*, tremor*, Straub*, sedation, excitation, abnormal gait* (rolling, tip-toe), jumps*, motor incoordination*, writhes*, piloerection*, stereotypies* (sniffing, chewing, head movements), head twitches*, scratching*, respiration*, aggressiveness*, fear, reactivity to touch, muscle tone, loss of righting reflex, ptosis, exopthalmos, loss of grasping, akinesia, catalepsy, loss of traction, loss of corneal reflex, analgesia, defecation, salivation, lacrimation, pupil diameter (Unit=1/45 mm) and rectal temperature.
Observations were performed 15, 30, 60, 120 and 180 minutes after administration of the test substance ((−)-humulone) and also 24 hours later. The symptoms marked (*) were observed continuously from 0 to 15 minutes after administration. 5 mice were studied per group.
(−)-Humulone was solubilized in physiological saline and injected into mice intraperitoneally.

For assay [4], the system named is mouse. Put plainly: Light dark box test in the mouse after subchronic oral gavage. Conditions: for Number of crossings, mean ± sem / Time spent in light compartment, mean ± sem: 5 h and 1 h before test; for Number of crossings, mean ± sem: vehicle 6.5 ± 1.0; for Time spent in light compartment, mean ± sem: vehicle 64.4 ± 4.7; for Number of crossings, % change / Time spent in light compartment, % change: versus vehicle control. The assay is classed as in vivo. The source says:
The method, which detects anxiolytic activity, follows that described by Crawley (Pharmacol. Biochem. Behav. 1981, 15, 695-699). Anxiolytics increase the time spent in the light compartment.
Animals were placed into the light compartment of a 2-compartment box with one half light and open (25×27×27 cm) and the other half dark and closed (20×27×27 cm). The time spent in each compartment as well as the number of times the animal crosses from one side to the other is scored during a 3-minute test. 15 mice were studied per group. The test was performed blind. […]
Clobazam (32 mg/kg orally), administered 1 hour before the test, will be used as reference substance. Mice in this group received additional administrations of vehicle at 25 and 5 hours before the test in order to maintain experimental blinding.

Where [5] appears, read: 50 mg/kg p.o., listed as (−)-Humulone.

This is an account of results in US7919531B2, “3,5-dihydroxy-2,4-cyclohexadienones and their derivatives, dietary compositions and fortified food containing them and their uses” (DSM IP Assets B.V., priority 2006, dated 2011).

pKi: −log10 of the molar value.

T1 sequence (P31645 whole entry): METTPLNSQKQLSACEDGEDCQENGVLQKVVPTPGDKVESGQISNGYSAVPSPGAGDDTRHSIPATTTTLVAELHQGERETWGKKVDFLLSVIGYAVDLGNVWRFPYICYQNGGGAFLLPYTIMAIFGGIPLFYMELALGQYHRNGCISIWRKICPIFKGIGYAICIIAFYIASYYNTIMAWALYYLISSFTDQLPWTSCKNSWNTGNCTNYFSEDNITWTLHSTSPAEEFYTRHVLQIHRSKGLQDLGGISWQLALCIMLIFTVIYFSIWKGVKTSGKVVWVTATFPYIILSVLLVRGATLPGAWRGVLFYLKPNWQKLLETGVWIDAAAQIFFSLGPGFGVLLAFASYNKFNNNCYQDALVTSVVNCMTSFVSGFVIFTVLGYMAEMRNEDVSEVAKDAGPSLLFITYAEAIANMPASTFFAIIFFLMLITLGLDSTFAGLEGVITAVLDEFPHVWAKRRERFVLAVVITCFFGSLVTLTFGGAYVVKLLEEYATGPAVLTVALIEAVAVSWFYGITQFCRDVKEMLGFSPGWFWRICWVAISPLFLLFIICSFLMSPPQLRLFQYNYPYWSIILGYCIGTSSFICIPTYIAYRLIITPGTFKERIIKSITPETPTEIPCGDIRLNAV

Turning to `CNCCC(Oc1ccc(C(F)(F)F)cc1)c1ccccc1` (stereo not shown) [FLUOXETINE, fluoxetine, reference compound], in the assay on mouse [1] (32 mg/kg i.p. −30 min), the “Number of marbles covered by sawdust, % change from control” value is on record as −91% and the “Number of marbles covered by sawdust, mean ± s.e.m.” value was 1.9 ± 1.0 (***).
As to “6-hydroxylupulone [compound 4, reference compound]”, in assay [2], the “Effect on serotonin re-uptake (hSERT dependent uptake of tritiated serotonin into transfected cells)” value (shortened to “Effect on serotonin re-uptake”) was “no effect”.
As usually defined, the pKi is the Ki on a negative log10 scale, so that one unit is a factor of ten. In the case of `CC(C)=CCC1=C(O)C(C(=O)CC(C)C)=C(O)C(CC=C(C)C)(CC=C(C)C)C1=O` [Lupulone, lupulone], in assay [2], the “Effect on serotonin re-uptake” value is on record as “inhibited” and the negative-log Ki (pKi) was 5.22.
In the case of `CC(C)=CCC1C(=O)C(C(=O)CC(C)C)=C(O)C(O)(CC=C(C)C)C1=O` (single isomer, unassigned; (-)) [(−)-humulone], the “Decreased fear, number of mice” value in the assay with mouse [3] (at 30 minutes) worked out at 3 mice; in the assay on mouse [3] (at 60 minutes), 1 mouse. Further, the entries for the “Decreased muscle tone, number of mice” value in the assay on mouse [3] (at 30 minutes) and in the assay on mouse [3] (at 60 minutes) were 4 mice and 1 mouse, respectively. In addition, the negative logarithm of the Ki (pKi) in assay [2] was 4.77. The “Number of crossings, mean ± sem” value in the assay with mouse [4] (50 mg/kg p.o. -24 h) amounted to 13.7 ± 1.3; with mouse [4] (100 mg/kg p.o. -24 h), 7.9 ± 1.0; with mouse [4] (200 mg/kg p.o. -24 h), 8.3 ± 1.2. Also, the figures for the “Time spent in light compartment, mean ± sem” value in the assay with mouse [4] (50 mg/kg p.o. -24 h), in the assay with mouse [4] (100 mg/kg p.o. -24 h) and in the assay with mouse [4] (200 mg/kg p.o. -24 h) were 95.4 ± 3.8 s, 86.4 ± 8.9 s and 71.5 ± 8.8 s, respectively. Besides, the “Number of crossings, % change” value is “+111%” with mouse [4] (50 mg/kg p.o.), “+111%” in the assay with mouse [4] (setting [5]), “+22%” in the assay with mouse [4] (100 mg/kg p.o.) and “+28%” with mouse [4] (200 mg/kg p.o.). For the same compound, the “Time spent in light compartment, % change” value with mouse [4] (50 mg/kg p.o.) is reported as “+48%”; in the assay with mouse [4] (setting [5]) it was “+48%”; in the assay on mouse [4] (100 mg/kg p.o.) it was “+34%”; in the assay with mouse [4] (100 mg/kg p.o., listed as (−)-Humulone), “+34%”; in the assay on mouse [4] (200 mg/kg p.o.), “+11%”; in the assay on mouse [4] (200 mg/kg p.o., listed as (−)-Humulone), “+11%”. Also, the “Number of marbles covered by sawdust, % change from control” value in the assay with mouse [1] (3 mg/kg i.p. −30 min) is recorded as −9%; with mouse [1] (10 mg/kg i.p. −30 min), −13%; in the assay on mouse [1] (30 mg/kg i.p. −30 min), −81%. Besides, the “Number of marbles covered by sawdust, mean ± s.e.m.” value with mouse [1] (3 mg/kg i.p. −30 min) was 18.3 ± 1.7 (NS); in the assay on mouse [1] (10 mg/kg i.p. −30 min), 17.5 ± 2.0 (NS); in the assay on mouse [1] (30 mg/kg i.p. −30 min) it was 3.8 ± 1.5 (***).
For “6-hydroxycolupulone [compound 5, reference compound]”, the “Effect on serotonin re-uptake” value in assay [2] was “no effect”.
The same measure, in the same setting: the same measure for `CC(C)=CCC(=O)C1(O)C(O)=C(C(=O)CC(C)C)C(=O)C1CC=C(C)C` (stereo not shown) [compound 3, isohumulone, reference compound]: “no effect”.
